Source: article PMC7221574 (Molecules, 2020)
Several values for one entry are separate records, joined by “and”; a condition that tells them apart may be missing. Equal values may be shown once. Read-outs that look alike come from different tables or passages of the source.

Key:
[1] = test system: LoVo; assay: In vitro antiproliferative activity, SRB assay, LoVo; assay type: cell-based, human; conditions: for IC50: human colon adenocarcinoma, 72 h, SRB, mean ± SD; for selectivity index (SI) LoVo: SI = (IC50 BALB/3T3)/(IC50 LoVo)
Method: (§1) The A549 cell line was purchased from the European Collection of Authenticated Cell Cultures (ECACC, Salisbury, UK). The MCF-7, LoVo and LoVo/DX cell lines was purchased from American Type Culture Collection (ATCC, Manassas, VA, USA). All the cell lines are maintained in the Institute of Immunology and Experimental Therapy (IIET), Wroclaw, Poland.
(§2) Human lung adenocarcinoma cell line was cultured in a mixture of OptiMEM and RPMI 1640 (1:1) medium (IIET, Wroclaw, Poland), supplemented with 5% fetal bovine serum HyClone (GE Healthcare, USA) and 2 mM L-glutamine (Sigma-Aldrich, Germany). Human breast adenocarcinoma cell line was cultured in a mixture of Eagle medium (IIET, Wroclaw, Poland), supplemented with 10% fetal bovine serum, 2 mM L-glutamine, 8 μg/mL insulin and 1% amino acids (Sigma-Aldrich, Germany). Human colon adenocarcinoma cell lines were cultured in a mixture of OptiMEM and RPMI 1640 (1:1) medium (IIET, Wroclaw, Poland), supplemented with 5% fetal bovine serum HyClone (GE Healthcare, USA), 2 mM L-glutamine, 1 mM sodium pyruvate (Sigma-Aldrich, Germany) and 10 μg/100 mL doxorubicin (Accord) for LoVo/DX. Murine embryonic fibroblast cells were cultured in Dulbecco medium (Gibco), supplemented with 10% fetal bovine serum (GE Healthcare, USA) and 2 mM L-glutamine (Sigma-Aldrich, Germany). All culture media contained antibiotics: 100 U/mL penicillin (Polfa-Tarchomin, Poland) and 0.1 mg/mL streptomycin (Sigma Aldrich, Germany). All cell lines were cultured during entire experiment in humid atmosphere at 37 °C and 5% CO2.
(§3) All cell lines were exposed to each tested agent at different concentrations in the range 100–0.001 μg/mL for 72 h. The cells were also exposed to the reference drug cisplatin (Teva Pharmaceuticals, Poland) and doxorubicin (Accord Healthcare Limited, UK). Additionally, all cell lines were exposed to DMSO (solvent used for tested compounds) (POCh, Poland) at concentrations corresponding to those present in dilutions of tested agents. After 72 h sulforhodamine B assay (SRB) was performed.
(§4) After 72 h of incubation with the tested compounds, the cells were fixed in situ by gently adding of 50 μL per well of cold 50% trichloroacetic acid TCA (POCh, Poland) and were incubated at room temperature for one hour. Then the wells were washed four times with water and air dried. Next, 50 μL of 0.1% solution of sulforhodamine B (Sigma-Aldrich, Germany) in 1% acetic acid (POCh, Poland) were added to each well and were incubated at room temperature for 0.5 h. After incubation time, unbound dye was removed by washing plates four times with 1% acetic acid, whereas the stain bound to cells was solubilized with 150 μL of 10 mM Tris base (Sigma-Aldrich, Germany). Absorbance of each solution was read from a Synergy H4 Hybrid Multi-Mode Microplate Reader (BioTek Instruments, USA) at the 540 nm wavelength.

[2] = test system: MCF-7; assay: In vitro antiproliferative activity, SRB assay, MCF-7; assay type: cell-based, human; conditions: for IC50: human breast adenocarcinoma, 72 h, SRB, mean ± SD; for selectivity index (SI) MCF-7: SI = (IC50 BALB/3T3)/(IC50 MCF-7)
Method: as §1, §2, §3, §4

[3] = test system: LoVo/DX; assay: cells; assay type: cell-based, human; conditions: for RI (resistance index): RI = (IC50 for LoVo/DX)/(IC50 for LoVo); for IC50: 72 h, read-out: IC50 LoVo/DX
Method: as §1, §2, §3, §4

[4] = test system: A549; assay: In vitro antiproliferative activity, SRB assay, A549; assay type: cell-based, human; conditions: for IC50: human lung adenocarcinoma, 72 h, SRB, mean ± SD; for selectivity index (SI) A549: SI = (IC50 BALB/3T3)/(IC50 A549)
Method: as §1, §2, §3, §4

[5] = test system: BALB/3T3; assay: In vitro antiproliferative activity, SRB assay, normal fibroblasts BALB/3T3; assay type: cell-based, murine; conditions: for IC50: normal murine embryonic fibroblasts, 72 h, SRB, mean ± SD
Method: as §1, §2, §3, §4

Structure (SMILES)	IC50 [1]	IC50 [2]	RI (resistance index) [3]	IC50 ([3]; doxorubicin-resistant colon adenocarcinoma subline, SRB, mean ± SD)	IC50 [4]	IC50 [5]	IC50 ([1]; Homo sapiens, LoVo)	IC50 ([2]; Homo sapiens, MCF7, 72 h)	IC50 ([3]; Homo sapiens, LoVo/DX)	IC50 ([4]; Homo sapiens, A549, 72 h)	IC50 ([5]; Mus musculus, BALB/3T3)	selectivity index (SI) LoVo [1]	selectivity index (SI) MCF-7 [2]	selectivity index (SI) A549 [4]	selectivity index (SI), cancer cell lines not named at the place ([5]; SI = (IC50 BALB/3T3)/(IC50 respective cancerous cell line), range over several lines)	times more potent than unmodified colchicine 1 ([3]; LoVo/DX line)	IC50 ([3]; Homo sapiens, LoVo/DX, doxorubicin-resistant colon adenocarcinoma subline, SRB, mean ± SD)
N.N.[Cl][Pt][Cl] [Cisplatin, reference compound]	7080 ± 1600 nM	7140 ± 1220 nM	1.2	8340 ± 1120 nM	5740 ± 968 nM	5665 ± 31.8 nM	–	–	–	–	–	–	–	–	–	–	–
CNc1ccc2c(cc1=O)[C@@H](NC(C)=O)CCc1cc(OC)c(OC)c(OC)c1-2 [Compound 2, 10-methylamino-10-demethoxycolchicine]	–	–	63.0	–	–	–	4.3 ± 1.3 nM	8.6 ± 1.3 nM	271 ± 99.9 nM	10.8 ± 1.3 nM	10.8 ± 1.3 nM	–	–	–	–	–	–
CNc1ccc2c(cc1=O)[C@@H](N)CCc1cc(OC)c(OC)c(OC)c1-2 [Compound 3, N-deacetyl-10-methylamino-10-demethoxycolchicine]	14 ± 1.7 nM	19.7 ± 1.7 nM	9.2	–	16.9 ± 2.8 nM	–	< 20 nM	< 20 nM	129 ± 11.8 nM	< 20 nM	19.7 ± 7 nM	–	–	–	–	–	–
CCC(=O)NC1CCc2cc(OC)c(OC)c(OC)c2-c2ccc(NC)c(=O)cc21 (centres unmarked) [Compound 4]	–	–	28.0	–	–	–	9.7 ± 1.5 nM	14.6 ± 1.5 nM	272 ± 104 nM	14.6 ± 2.4 nM	19.4 ± 4.1 nM	–	–	–	–	–	–
CCCC(=O)N[C@H]1CCc2cc(OC)c(OC)c(OC)c2-c2ccc(NC)c(=O)cc21 [Compound 5]	–	–	20.2	–	–	–	9.6 ± 0.5 nM	14.1 ± 1.4 nM	195 ± 51.9 nM	14.1 ± 2.4 nM	16.4 ± 3.5 nM	–	–	–	–	–	–
CCCCC(=O)NC1CCc2cc(OC)c(OC)c(OC)c2-c2ccc(NC)c(=O)cc21 (centres unmarked) [Compound 6]	–	–	15.0	–	–	–	6.8 ± 3.9 nM	15.9 ± 6.6 nM	102 ± 20.7 nM	13.6 ± 1.4 nM	13.6 ± 2.3 nM	–	–	–	–	–	–
CCCCCCCCCCCCCCCC(=O)N[C@H]1CCc2cc(OC)c(OC)c(OC)c2-c2ccc(NC)c(=O)cc21 [Compound 7]	–	–	39.0	–	–	–	62.4 ± 16.9 nM	465 ± 187 nM	2440 ± 923 nM	614 ± 194 nM	546 ± 104 nM	over 6	–	–	–	–	–
CNc1ccc2c(cc1=O)C(NC(=O)C(C)C)CCc1cc(OC)c(OC)c(OC)c1-2 (centres unmarked) [Compound 8]	–	–	24.3	–	–	–	7 ± 1.4 nM	18.8 ± 9.9 nM	171 ± 41.3 nM	11.7 ± 1.4 nM	28.1 ± 10.8 nM	1.5–4.0	1.5–4.0	1.5–4.0	–	–	–
CNc1ccc2c(cc1=O)C(NC(=O)CCl)CCc1cc(OC)c(OC)c(OC)c1-2 (centres unmarked) [Compound 9]	–	–	35.2	–	–	–	1.8 ± 0.4 nM	9.2 ± 1.4 nM	62.4 ± 6.7 nM	11.6 ± 2.8 nM	11.6 ± 2.3 nM	over 6	–	–	–	–	–
CNc1ccc2c(cc1=O)[C@@H](NC(=O)C(Cl)Cl)CCc1cc(OC)c(OC)c(OC)c1-2 [Compound 10]	–	–	25.8	–	–	–	1.5 ± 0.5 nM	8.6 ± 1.2 nM	38.5 ± 21.6 nM	8.6 ± 1.3 nM	10.7 ± 1.3 nM	over 6	–	–	–	–	–
CNc1ccc2c(cc1=O)C(NC(=O)CCC(F)(F)F)CCc1cc(OC)c(OC)c(OC)c1-2 (centres unmarked) [Compound 11, 4,4,4-trifluorobutyric amide of 10-N-methylaminocolchicine]	10.4 ± 1.3 nM	12.7 ± 0.4 nM	27.8	–	14.6 ± 2.1 nM	–	10.4 to 14.6 nM	10.4 to 14.6 nM	290 ± 165 nM	10.4 to 14.6 nM	81.3 ± 20.4 nM	higher than 5	higher than 5	higher than 5	5.6–7.8	–	–
CNc1ccc2c(cc1=O)[C@@H](NC(=O)c1ccccc1)CCc1cc(OC)c(OC)c(OC)c1-2 [Compound 12]	–	–	11.8	–	–	–	8.5 ± 0.4 nM	13 ± 1.3 nM	99.9 ± 10 nM	13 ± 1.3 nM	13 ± 3.3 nM	–	–	–	–	–	–
CNc1ccc2c(cc1=O)[C@@H](NC(=O)c1ccccc1Cl)CCc1cc(OC)c(OC)c(OC)c1-2 [Compound 13]	–	–	14.0	–	–	–	0.7 ± 0.1 nM	9.2 ± 0.8 nM	9.6 ± 3.3 nM	6.3 ± 3.2 nM	6.2 ± 1.6 nM	over 6	–	–	–	approx. 170 times	–
CNc1ccc2c(cc1=O)[C@@H](NC(=O)c1cccc(F)c1)CCc1cc(OC)c(OC)c(OC)c1-2 [Compound 14]	–	–	12.0	–	–	–	8.6 ± 0.8 nM	12.6 ± 1.3 nM	102 ± 24.9 nM	10.7 ± 0.6 nM	12.6 ± 2.1 nM	–	–	–	–	–	–
CNc1ccc2c(cc1=O)[C@@H](NC(=O)c1cccnc1)CCc1cc(OC)c(OC)c(OC)c1-2 [Compound 15]	–	–	76.8	–	–	–	10.8 ± 1.3 nM	13 ± 2.2 nM	832 ± 293 nM	36.8 ± 12.1 nM	43.3 ± 29.7 nM	–	–	–	–	–	–
CNc1ccc2c(cc1=O)[C@@H](NC(=O)c1ccncc1)CCc1cc(OC)c(OC)c(OC)c1-2 [Compound 16]	–	–	87.4	–	–	–	10.8 ± 1.3 nM	12.8 ± 0.9 nM	947 ± 260 nM	17.3 ± 3.7 nM	52 ± 29.3 nM	–	–	–	–	–	–
CNc1ccc2c(cc1=O)C(NS(N)(=O)=O)CCc1cc(OC)c(OC)c(OC)c1-2 (centres unmarked) [Compound 17]	–	–	306.0	–	–	–	21.1 ± 17.5 nM	10.3 ± 3.9 nM	6470 ± 264 nM	56.6 ± 14.7 nM	100 ± 24.1 nM	–	~10 and 9.8	–	–	–	–
CNc1ccc2c(cc1=O)C(NS(=O)(=O)N(C)C)CCc1cc(OC)c(OC)c(OC)c1-2 (centres unmarked) [Compound 18]	9.3 ± 1.1 nM	15.5 ± 1.7 nM	57.8	–	10.6 ± 0.6 nM	–	9.3 to 15.5 nM	9.3 to 15.5 nM	540 ± 107 nM	9.3 to 15.5 nM	14.2 ± 13.2 nM	–	–	–	–	–	–
C=CS(=O)(=O)NC1CCc2cc(OC)c(OC)c(OC)c2-c2ccc(NC)c(=O)cc21 (centres unmarked) [Compound 19]	–	–	36.7	–	–	–	8.4 ± 0.7 nM	13 ± 4.3 nM	307 ± 145 nM	11.4 ± 1.7 nM	8.3 ± 3.8 nM	–	–	–	–	–	–
CNc1ccc2c(cc1=O)C(NS(=O)(=O)CCN1CCOCC1)CCc1cc(OC)c(OC)c(OC)c1-2 (centres unmarked) [Compound 20]	–	–	165.4	–	–	–	268 ± 94 nM	150 ± 25.3 nM	44400 ± 23900 nM	800 ± 130 nM	991 ± 280 nM	–	6.6	–	–	–	–
CNc1ccc2c(cc1=O)[C@@H](NS(=O)(=O)c1ccc(C(F)(F)F)cc1)CCc1cc(OC)c(OC)c(OC)c1-2 [Compound 21]	–	–	83.3	–	–	–	73.5 ± 15.7 nM	134 ± 41.5 nM	6120 ± 825 nM	85.5 ± 5.4 nM	87.6 ± 13.5 nM	–	–	–	–	–	–
COc1cccc2c1C(=O)c1c(O)c3c(c(O)c1C2=O)C[C@@](O)(C(=O)CO)C[C@@H]3O[C@H]1C[C@H](N)[C@H](O)[C@H](C)O1 [Doxorubicin, reference compound]	–	–	87.9	–	–	–	99.4 ± 41 nM	204 ± 47.8 nM	–	142 ± 46 nM	149 ± 127 nM	–	–	–	–	–	8730 ± 2540 nM
